The values that follow come from US9169260B2 (MERCK SHARP & DOHME CORP., priority 2011, dated 2015).

Structures are written as SMILES.

Sequence of GST tagged IRAK-4 (Q9NWZ3 whole entry): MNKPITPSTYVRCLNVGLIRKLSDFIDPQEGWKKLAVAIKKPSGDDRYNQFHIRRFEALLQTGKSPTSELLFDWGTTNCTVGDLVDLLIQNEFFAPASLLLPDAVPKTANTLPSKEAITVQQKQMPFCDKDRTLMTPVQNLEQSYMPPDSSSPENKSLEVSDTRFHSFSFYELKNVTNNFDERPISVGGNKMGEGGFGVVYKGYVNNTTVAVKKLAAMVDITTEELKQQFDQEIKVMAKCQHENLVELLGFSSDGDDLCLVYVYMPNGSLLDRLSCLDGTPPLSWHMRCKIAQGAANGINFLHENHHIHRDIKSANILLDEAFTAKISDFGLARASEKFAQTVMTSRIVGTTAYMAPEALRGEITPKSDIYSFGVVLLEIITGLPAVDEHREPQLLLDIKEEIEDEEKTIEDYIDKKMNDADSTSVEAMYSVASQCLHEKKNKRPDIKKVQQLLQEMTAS

One assay deals with GST tagged IRAK-4 (Homo sapiens (Human), UniProt Q9NWZ3). Put plainly: IRAK-4 Kinase Assay (IMAP fluorescence polarization). The conditions noted are these: 100 μM ATP, 30 minutes at 25° C. In kind it is biochemical. A digest of the protocol:
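Activity was read by IMAP fluorescence polarization, where phosphopeptide binding to M(III) nanoparticles raises FP. The 30-minute, 25° C reaction used 100 μM ATP, 100 nM RP7030 substrate and 0.5 nM GST-IRAK-4 in pH 7.2 Tris buffer with MgCl2, DTT and Tween 20.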
Regarding `Cc1ccc(-n2nc(C3CCN(Cc4cscn4)CC3)cc2NC(=O)c2cnn3cccnc23)cc1` [Example 231, N-{1-(4-methylphenyl)-3-[1-(1,3-thiazol-4-ylmethyl)piperidin-4-yl]-1H-pyrazol-5-yl}pyrazolo[1,5-a]pyrimidine-3-carboxamide], the IC50 (in general, the concentration needed to halve the response being measured) was less than 0.1 µM.

On to `Cc1ccc(-n2nc(C3CN(Cc4cccnc4)C3)cc2NC(=O)c2cnn3cccnc23)cc1` [Example 314, N-{1-(4-methylphenyl)-3-[1-(pyridin-3-ylmethyl)azetidin-3-yl]-1H-pyrazol-5-yl}pyrazolo[1,5-a]pyrimidine-3-carboxamide], for which the IC50 is less than 0.1 µM. In turn, `Cc1ccc(-n2nc(N3CCN(C4CCC4)CC3)cc2NC(=O)c2cnn3cccnc23)nc1` [Example 320, N-[3-(4-cyclobutylpiperazin-1-yl)-1-(5-methylpyridin-2-yl)-1H-pyrazol-5-yl]pyrazolo[1,5-a]pyrimidine-3-carboxamide] returned an IC50 of less than 0.1 µM. On the same count and under the same terms, the result for `Cc1ccc(-n2nc(C3CCN(C(C)C)CC3)cc2NC(=O)c2cnn3cccnc23)c(F)c1` [Example 58, N-(1-(2-fluoro-4-methylphenyl)-3-(1-isopropylpiperidin-4-yl)-1H-pyrazol-5-yl)pyrazolo[1,5-a]pyrimidine-3-carboxamide] reads less than 0.1 µM; that for `Cc1ccc(-n2nc(C3CCN(S(C)(=O)=O)CC3)cc2NC(=O)c2cnn3cccnc23)cc1` [Example 18, N-(3-(1-(methylsulfonyl)piperidin-4-yl)-1-(p-tolyl)-1H-pyrazol-5-yl)pyrazolo[1,5-a]pyrimidine-3-carboxamide], less than 0.1 µM.

With `Cc1ccc(-n2nc(C3CCN(C(=O)C4(O)CCC4)CC3)cc2NC(=O)c2cnn3cc(Br)cnc23)cc1` [Example 116, 6-bromo-N-(3-(1-(1-hydroxycyclobutanecarbonyl)piperidin-4-yl)-1-(p-tolyl)-1H-pyrazol-5-yl)pyrazolo[1,5-a]pyrimidine-3-carboxamide], the IC50 was less than 0.1 µM. Still for that read-out and setting: the value for `Cc1ccc(-n2nc(C3CCN(C4CCC4)CC3)cc2NC(=O)c2cnn3cccnc23)cc1` [Example 38, N-(3-(1-cyclobutylpiperidin-4-yl)-1-(p-tolyl)-1H-pyrazol-5-yl)pyrazolo[1,5-a]pyrimidine-3-carboxamide] was less than 0.1 µM; that for `Cc1ccc(-n2nc(C3=CCNCC3)cc2NC(=O)c2cnn3cccnc23)cc1` [Example 138, N-(3-(1,2,3,6-tetrahydropyridin-4-yl)-1-(p-tolyl)-1H-pyrazol-5-yl)pyrazolo[1,5-a]pyrimidine-3-carboxamide] was less than 0.1 µM. On the same count and under the same terms, the result for `Cc1ccc(-n2nc(C3CCN(C4CC(C#N)C4)CC3)cc2NC(=O)c2cnn3cccnc23)cc1` (stereo not drawn) [Example 258, N-{3-[1-(3-cyanocyclobutyl)piperidin-4-yl]-1-(4-methylphenyl)-1H-pyrazol-5-yl}pyrazolo[1,5-a]pyrimidine-3-carboxamide] reads less than 0.1 µM; that for `Cc1ccc(-n2nc(C3CCN(C4CCC(NS(C)(=O)=O)CC4)CC3)cc2NC(=O)c2cnn3cccnc23)nc1` (stereo not drawn) [Example 263, N-[1-(5-methylpyridin-2-yl)-3-(1-{4-[(methylsulfonyl)amino]cyclohexyl]piperidin-4-yl)-1H-pyrazol-5-yl}pyrazolo[1,5-a]pyrimidine-3-carboxamide], less than 0.1 µM. With `Cc1ccc(-n2nc(C3CN(Cc4cn[nH]c4)C3)cc2NC(=O)c2cnn3cccnc23)cc1` [Example 305, N-{1-(4-methylphenyl)-3-[1-(1H-pyrazol-4-ylmethyl)azetidin-3-yl]-1H-pyrazol-5-yl}pyrazolo[1,5-a]pyrimidine-3-carboxamide], the IC50 was less than 0.1 µM.

`Cc1ccc(-n2nc(C3CCN(Cc4cncs4)CC3)cc2NC(=O)c2cnn3cccnc23)cc1` [Example 229, N-{1-(4-methylphenyl)-3-[1-(1,3-thiazol-5-ylmethyl)piperidin-4-yl]-1H-pyrazol-5-yl}pyrazolo[1,5-a]pyrimidine-3-carboxamide] yielded an IC50 of less than 0.1 µM. The compound `Cc1ccc(-n2nc(C3CCN(C4CCN(c5ccc(F)cc5)C4)CC3)cc2NC(=O)c2cnn3cccnc23)nc1` (stereo not drawn) [Example 266, N-[3-{1-[1-(4-fluorophenyl)pyrrolidin-3-yl]piperidin-4-yl]-1-(5-methylpyridin-2-yl)-1H-pyrazol-5-yl}pyrazolo-[1,5-a]pyrimidine-3-carboxamide] showed an IC50 of less than 0.1 µM.

The assay is the same for the next values; noted with them: 100 μM ATP, 30 minutes at 25° C.; μM.
On to `O=C(Nc1cc(C2CCN(S(=O)(=O)C3CC3)CC2)nn1-c1ccc(C2CC2)cn1)c1cnn2cccnc12` [Example 150, N-(1-(5-cyclopropylpyridin-2-yl)-3-(1-(cyclopropylsulfonyl)piperidin-4-yl)-1H-pyrazol-5-yl)pyrazolo[1,5-a]pyrimidine-3-carboxamide], for which the IC50 is less than 1 µM. The compound `Cc1ccc(-n2nc(C3CCN(S(=O)(=O)c4cccc5ccccc45)CC3)cc2NC(=O)c2cnn3cccnc23)cc1` [Example 357, N-{1-(4-methylphenyl)-3-[1-(naphthalen-1-ylsulfonyl)piperidin-4-yl]-1H-pyrazol-5-yl}pyrazolo[1,5-a]pyrimidine-3-carboxamide] registered an IC50 of less than 1 µM.

The compound `CC(C)N1CCC(c2cc(NC(=O)c3cnn4cccnc34)n(-c3ncc[nH]3)n2)CC1` [Example 187, N-(1-(1H-imidazol-2-yl)-3-(1-isopropylpiperidin-4-yl)-1H-pyrazol-5-yl)pyrazolo[1,5-a]pyrimidine-3-carboxamide] gave an IC50 of less than 1 µM.

Turning to `Cc1ccc(-n2nc(C3CCN(S(=O)(=O)c4cnn(C)c4)CC3)cc2NC(=O)c2cnn3cccnc23)cc1` [Example 375, N-[1-(4-methylphenyl)-3-{1-[(1-methyl-1H-pyrazol-4-yl)sulfonyl]piperidin-4-yl}-1H-pyrazol-5-yl]pyrazolo[1,5-a]pyrimidine-3-carboxamide], the IC50 is less than 1 µM. Still for that read-out and setting: the result for `Cc1ccc(-n2nc(C3CCN(S(=O)(=O)c4ccc(Cl)cc4Cl)CC3)cc2NC(=O)c2cnn3cccnc23)cc1` [Example 391, N-[3-{1[(2,4-dichlorophenyl)sulfonyl]piperidin-4-yl}-1-(4-methylphenyl)-1H-pyrazol-5-yl]pyrazolo[1,5-a]pyrimidine-3-carboxamide] reads more than 1 µM; that for `Cc1ccc(-n2nc(C3CCN(Cc4ncco4)CC3)cc2NC(=O)c2cnn3cccnc23)cc1` [Example 232, N-{1-(4-methylphenyl)-3-[1-(1,3-oxazol-2-ylmethyl)piperidin-4-yl]-1H-pyrazol-5-yl}pyrazolo[1,5-a]pyrimidine-3-carboxamide], less than 1 µM. In turn, `CCNC(=O)N1CC(N2CCC(c3cc(NC(=O)c4cnn5cccnc45)n(-c4ccc(C)cc4)n3)CC2)C1` [Example 237, N-[3-{1-[1-(ethylcarbamoyl)azetidin-3-yl]piperidin-4-yl}-1-(4-methylphenyl)-1H-pyrazol-5-yl]pyrazolo[1,5-a]pyrimidine-3-carboxamide] displayed an IC50 of less than 1 µM. The same measure, in the same setting: the value for `Cc1ccc(-n2nc(C3CCN(S(=O)(=O)c4cccc(C(F)(F)F)c4)CC3)cc2NC(=O)c2cnn3cccnc23)cc1` [Example 371, N-[1-(4-methylphenyl)-3-(1-{[3-(trifluoromethyl)phenyl]sulfonyl}piperidin-4-yl)-1H-pyrazol-5-yl]pyrazolo[1,5-a]pyrimidine-3-carboxamide] was more than 1 µM; that for `Cc1cc(F)ccc1-n1nc(C2CCN(C(C)C)CC2)cc1NC(=O)c1cnn2cccnc12` [Example 69, N-(1-(4-fluoro-2-methylphenyl)-3-(1-isopropylpiperidin-4-yl)-1H-pyrazol-5-yl)pyrazolo[1,5-a]pyrimidine-3-carboxamide] was less than 1 µM.

As to `Cc1ccc(-n2nc(C3CN(Cc4ccn[nH]4)C3)cc2NC(=O)c2cnn3cccnc23)cc1` [Example 306, N-{1-(4-methylphenyl)-3-[1-(1H-pyrazol-5-ylmethyl)azetidin-3-yl]-1H-pyrazol-5-yl}pyrazolo[1,5-a]pyrimidine-3-carboxamide], the IC50 is less than 1 µM.

The compound `Cc1ccc(-n2nc(C3CCN(S(=O)(=O)C4CC4)CC3)cc2NC(=O)c2cnn3cccnc23)cc1` [Example 26, N-(3-(1-(cyclopropylsulfonyl)piperidin-4-yl)-1-(p-tolyl)-1H-pyrazol-5-yl)pyrazolo[1,5-a]pyrimidine-3-carboxamide] returned an IC50 of less than 1 µM.

The compound `Cc1ccc(-n2nc(C3CCN(Cc4cccnc4)CC3)cc2NC(=O)c2cnn3cccnc23)cc1` [Example 225, N-{1-(4-methylphenyl)-3-[1-(pyridin-3-ylmethyl)piperidin-4-yl]-1H-pyrazol-5-yl}pyrazolo[1,5-a]pyrimidine-3-carboxamide] had an IC50 of less than 1 µM. On to `COc1ccc(S(=O)(=O)N2CCC(c3cc(NC(=O)c4cnn5cccnc45)n(-c4ccc(C)cc4)n3)CC2)cc1` [Example 367, N-[3-{1-[(4-methoxyphenyl)sulfonyl]piperidin-4-yl}-1-(4-methylphenyl)-1H-pyrazol-5-yl]pyrazolo[1,5-a]pyrimidine-3-carboxamide], for which the IC50 was less than 1 µM. The same measure, in the same setting: the result for `Cc1ccc(-n2nc(C3CCC(N(C)C)CC3)cc2NC(=O)c2cnn3cccnc23)cc1` (stereo not drawn) [Example 5, N-(3-(4-(dimethylamino)cyclohexyl)-1-(p-tolyl)-1,4-pyrazol-5-yl)pyrazolo[1,5-a]pyrimidine-3-carboxamide] reads less than 1 µM; that for `Cc1ccc(-n2nc(C3CCN(S(=O)(=O)c4ccc(Cl)nc4)CC3)cc2NC(=O)c2cnn3cccnc23)cc1` [Example 382], less than 1 µM. The same measure, in the same setting: the value for `Cc1ccc(-n2nc(C3CCN(C(N)=O)CC3)cc2NC(=O)c2cnn3cccnc23)cc1` [Example 35, N-(3-(1-carbamoylpiperidin-4-yl)-1-(p-tolyl)-1H-pyrazol-5-yl)pyrazolo[1,5-a]pyrimidine-3-carboxamide] was less than 1 µM. `Cc1ccc(-n2nc(-c3ccnc(CO)c3)cc2NC(=O)c2cnn3cccnc23)cc1` [Example 329, N-{3-[2-(hydroxymethyl)pyridin-4-yl]-1-(4-methylphenyl)-1H-pyrazol-5-yl}pyrazolo[1,5-a]pyrimidine-3-carboxamide] registered an IC50 of less than 1 µM.
